{
  "source": "patent US9951039B2",
  "about": "“Pyrimidines for treatment of bacterial infections” (The Hong Kong Polytechnic University, priority 2016, dated 2018)",
  "key": {"[1]": {"test_system": "USA300 #417 (community-associated MRSA)", "assay": "MIC against clinically isolated strain 6", "format": "cell-based, S. aureus", "conditions": "Staphylococcus aureus", "procedure": "(§1) Procedure of Antimicrobial susceptibility test: The MIC value of compounds was measured in the antimicrobial susceptibility test using the broth microdilution procedure in accordance with the CLSI guidelines.^21 Cation-adjusted Mueller Hinton broth (CA-MHB) was used for all the S. aureus strains in the assay. Cells in exponential phase of growth were diluted to approximately 5×10^5 cfu/mL. Stock solutions of each compound were freshly dissolved in dimethyl sulfoxide (DMSO). Then, serial dilutions of each compound in CA-MHB medium were added into 96-well microplate. The final percentage of DMSO in the assay was 1%. Control experiments were performed with 1% DMSO instead of the compound solution. After being incubated at 37° C. for 18 h, OD600 value of cells was measured on a microplate reader and the percentage of bacterial cell inhibition with respect to controls was calculated. The MIC value was defined as the lowest compound concentration at which the growth of bacteria was inhibited by ≥90%. Three independent assays were performed for each compound.\n(§2) Results: Three compounds, namely 14av_amine16, 14dv_amine16 and 14dv_amine06, were selected to be tested against nine in-house clinically isolated bacterial strains including S. aureus ATCC29247, which is an ampicillin resistant strain, S. aureus ATCC BAA-41, ATCC BAA-1717, ATCC BAA-1720, ATCC 43300 which are methicillin resistant strains and four USA300 strains, (#417, #757, #1799 and #2690), which are the predominant strain type of community-associated MRSA strains in the United States."}, "[2]": {"test_system": "USA300 #2690 (community-associated MRSA)", "assay": "MIC against clinically isolated strain 9", "format": "cell-based, S. aureus", "conditions": "Staphylococcus aureus", "procedure": "as §1, §2"}, "MRSA ATCC 43300": {"test_system": "MRSA ATCC 43300", "assay": "Frequency of resistance (FOR) determination", "format": "cell-based, S. aureus", "conditions": "8 folds of MIC, after 48 hours' incubation", "procedure": "Procedure: MRSA ATCC 43300 cells were grown to late-exponential phase (1×10^9 CFU/mL) and spread on agars plates containing 1% DMSO or compound 14av_amine16 at 8 folds of MIC level. The plates were incubated for 48 hours to allow resistant mutants to grow. The spontaneous FOR was calculated as the number of resistance colonies divided by the number of CFUs originally plated. The assay was performed in triplicates."}, "[3]": {"assay": "Compound solubility observed in aqueous medium of GTPase assay", "format": "physicochemical", "conditions": "higher concentration (>80 μM) causes precipitation in aqueous medium", "description": "Nonetheless, it seems very likely that compound 14av_amine16 suppresses the self-polymerization of FtsZ protein, probably via disrupting the GTPase hydrolysis activity of FtsZ protein."}, "[4]": {"test_system": "S. aureus ATCC 43300 (methicillin resistant)", "assay": "MIC against clinically isolated strain 5", "format": "cell-based", "conditions": "Staphylococcus aureus, ATCC43300", "procedure": "as §1, §2"}, "[5]": {"test_system": "S. aureus strain ATCC29213", "assay": "MIC, broth microdilution antimicrobial susceptibility test (CLSI)", "format": "cell-based", "conditions": "for MIC: Staphylococcus aureus", "description": "(§3) This example illustrates the evaluation of 2,4,6-trisubstituted pyrimidines 14 for their antimicrobial activities against the Gram positive S. aureus strain ATCC29213 and the Gram negative E. coli strain ATCC25922 by measuring their MIC, which is the lowest concentration of an antimicrobial agent that prevents visible growth of a microorganism in a broth dilution susceptibility test according to the standard method approved by the Clinical and Laboratory Standards Institute (CLSI) guidelines.^21\nas §1"}, "E. coli strain ATCC25922": {"test_system": "E. coli strain ATCC25922", "assay": "MIC, broth microdilution antimicrobial susceptibility test (CLSI)", "format": "cell-based", "conditions": "Escherichia coli, ATCC25922; E. coli ATCC 25922; growth inhibited by ≥90%, 18 h; read-out: MIC^c: Minimum inhibitory concentration against E. coli", "description": "as §3, §1"}},
  "note": "Like-named read-outs stand apart in the source and are kept apart here.",
  "data": [
    {"smiles": "CCC(CC)c1cc(CCN2CCCN(Cc3ccc(C(F)(F)F)cc3)CC2)nc(-c2ccncc2)n1", "note": "[Compound 14av_amine16, 1-(2-(6-(pentan-3-yl)-2-(pyridin-4-yl)pyrimidin-4-yl)ethyl)-4-(4-(trifluoromethyl)benzyl)-1,4-diazepane]", "values": [
      {"measurement": "MIC", "setting": "[1]", "result": 12, "unit": "µM"},
      {"measurement": "MIC", "setting": "[2]", "result": 12, "unit": "µM"},
      {"measurement": "colonies on plates treated with compound", "setting": "MRSA ATCC 43300", "result": "no colony was observed"},
      {"measurement": "compound solubility", "setting": "[3]", "result": "poor compound solubility"},
      {"measurement": "MIC", "setting": "[4]", "result": 12, "unit": "µM"},
      {"measurement": "MIC^c/MIC^b: Selectivity index", "setting": "[5]; E. coli ATCC 25922 MIC over S. aureus 29213 MIC", "result": ">15"},
      {"measurement": "MIC", "setting": "[5]; ATCC29213, S. aureus 29213, growth inhibited by ≥90%, 18 h, read-out: MIC^b: Minimum inhibitory concentration against S. aureus", "result": 8, "unit": "µM"},
      {"measurement": "MIC", "setting": "[5]; S. aureus ATCC29213, read-out: MIC against S. aureus", "result": "5 to 8", "unit": "µM"},
      {"measurement": "MIC", "setting": "E. coli strain ATCC25922", "result": "> 125", "unit": "µM"}
    ]}
  ]
}
